# Test results: patent US4468511A, “C-20- And C-23-Modified macrolide derivatives” (Eli Lilly and Company, priority 1983, dated 1984)
# Like-named read-outs stand apart in the source and are kept apart here.
# Experiments:
# [1] = tested on: Staphylococcus epidermidis EPI1; test: microbe, parasite or virus in culture; type: cell-based; details: Staphylococcus epidermidis, EPI1
# Method: (§1) The MIC's in Table II were determined by standard agar-dilution assays. The MIC's in Table III were obtained using a conventional broth-dilution microtiter test.
# [2] = tested on: Staphylococcus aureus S13E; test: microbe, parasite or virus in culture; type: cell-based
# Method: as §1
# [3] = tested on: Streptococcus pyogenes C203; test: MIC, standard agar-dilution assay; type: cell-based
# Method: (§2) Certain of the derivatives are active against some gram-negative bacteria, such as Pasteurella species. The MIC's in Table II were determined by standard agar-dilution assays. The MIC's in Table III were obtained using a conventional broth-dilution microtiter test.
# [4] = tested on: Streptococcus pneumoniae Park I; test: MIC, standard agar-dilution assay; type: cell-based
# Method: as §2
# [5] = tested on: Klebsiella pneumoniae KAE; test: MIC, standard agar-dilution assay; type: cell-based
# Summary of the method: (§3)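 The Klebsiella MIC was obtained by agar-dilution assay. Other organisms (Pasteurella hemolytica, Pasteurella multocida, Mycoplasma gallisepticum) were tested by conventional broth microdilution.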
# [6] = tested on: Klebsiella pneumoniae X26; test: MIC, standard agar-dilution assay; type: cell-based
# Summary of the method: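 Agar plates containing graded compound levels gave the Klebsiella value. Graded broth dilutions in microtiter plates gave the Pasteurella and Mycoplasma values.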
# Escherichia coli EC14 = test: MIC, standard agar-dilution assay; type: cell-based
# Method: as §2
# [7] = tested on: Staphylococcus aureus V41; test: MIC, standard agar-dilution assay; type: cell-based; details: Staphylococcus aureus, V41
# Method: as §2
# [8] = tested on: Streptococcus pyogenes 9960; test: MIC, standard agar-dilution assay; type: cell-based
# Method: as §2
# [9] = tested on: Staphylococcus aureus X1.1; test: MIC, standard agar-dilution assay; type: cell-based; details: Staphylococcus aureus, X1.1
# Summary of the method: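 A standard agar-dilution assay was used to test compounds against the Staphylococcus aureus isolate X1.1. Bacterial growth on agar with different compound concentrations was assessed, and the minimum inhibitory concentration was recorded in ug/mL.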
# Escherichia coli TEM = test: MIC, standard agar-dilution assay; type: cell-based; details: agar-dilution; Escherichia coli TEM; read-out: MIC
# Summary of the method: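 Antibacterial activity toward the gram-negative organism Escherichia coli was assessed by conventional agar dilution. The MIC, reported in ug/mL, is the minimum compound concentration on agar that prevents growth.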
# [10] = tested on: Streptococcus Group D X66; test: MIC, standard agar-dilution assay; type: cell-based
# Method: as §2
# [11] = tested on: Staphylococcus epidermidis EPI2; test: MIC, standard agar-dilution assay; type: cell-based
# Method: as §1
# [12] = tested on: Staphylococcus aureus X400; test: MIC, standard agar-dilution assay; type: cell-based; details: Staphylococcus aureus, X400
# Method: as §1
# [13] = tested on: Haemophilus influenzae C.L.; test: MIC, standard agar-dilution assay; type: cell-based; details: Haemophilus influenzae
# Method: as §1
# [14] = tested on: Haemophilus influenzae 76; test: MIC, standard agar-dilution assay; type: cell-based; details: agar-dilution; Haemophilus influenzae 76, Ampicillin-resistant strain; read-out: MIC
# Method: as §1
# Mycoplasma synoviae = test: MIC, conventional broth-dilution microtiter test; type: cell-based; details: Mycoplasmopsis synoviae
# Summary of the method: (§4)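 Two formats were used. Broth dilution in microtiter plates served for Pasteurella and Mycoplasma, while agar dilution served for Klebsiella.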
# [15] = tested on: Pasteurella multocida 22A; test: MIC, conventional broth-dilution microtiter test; type: cell-based
# Summary of the method: as §3
# Streptococcus sp. 80 = test: MIC, conventional broth-dilution microtiter test; type: cell-based
# Method: as §2
# Mycoplasma hyorhinis = test: MIC, conventional broth-dilution microtiter test; type: cell-based
# Summary of the method: as §4
# [16] = tested on: Pasteurella hemolytica 41D; test: MIC, conventional broth-dilution microtiter test; type: cell-based; details: broth-dilution microtiter; Pasteurella hemolytica 41D; read-out: MIC
# Summary of the method: as §3
# [17] = tested on: Pasteurella hemolytica 23C; test: MIC, conventional broth-dilution microtiter test; type: cell-based; details: broth-dilution microtiter; Pasteurella hemolytica 23C; read-out: MIC
# Summary of the method: as §3
# [18] = tested on: Mycoplasma gallisepticum 34159; test: MIC, conventional broth-dilution microtiter test; type: cell-based; details: Mycoplasmoides gallisepticum; broth-dilution microtiter; Mycoplasma gallisepticum 34159, Resistant strain; read-out: MIC
# Summary of the method: as §3
# [19] = tested on: Pasteurella multocida 17E; test: MIC, conventional broth-dilution microtiter test; type: cell-based; details: Pasteurella multocida, 17E
# Summary of the method: as §3
# Mycoplasma gallisepticum = test: MIC, conventional broth-dilution microtiter test; type: cell-based; details: Mycoplasmoides gallisepticum
# Summary of the method: as §3
# [20] = tested on: Mycoplasma gallisepticum 41313; test: MIC, conventional broth-dilution microtiter test; type: cell-based; details: Mycoplasmoides gallisepticum; broth-dilution microtiter; Mycoplasma gallisepticum 41313, Resistant strain; read-out: MIC
# Summary of the method: as §3
# [21] = tested on: Pasteurella multocida 60A; test: MIC, conventional broth-dilution microtiter test; type: cell-based
# Summary of the method: as §3
# [22] = tested on: Pasteurella hemolytica 22C; test: MIC, conventional broth-dilution microtiter test; type: cell-based; details: broth-dilution microtiter; Pasteurella hemolytica 22C; read-out: MIC
# Summary of the method: as §3
# [23] = tested on: Pasteurella multocida 68C; test: MIC, conventional broth-dilution microtiter test; type: cell-based
# Summary of the method: as §3
# [24] = tested on: Pasteurella multocida 40G; test: MIC, conventional broth-dilution microtiter test; type: cell-based
# Summary of the method: as §3
# Staphylococcus aureus = test: MIC, conventional broth-dilution microtiter test; type: cell-based
# Method: as §2
# [25] = tested on: Streptococcus pyogenes C203; test: Protection of mice experimentally infected with S. pyogenes C203; type: in vivo; details: mg/kg × 2, doses given 1 and 4 hours postinfection
# Method: Some of the derivatives of this invention have shown in vivo antimicrobial activity against experimentally-induced infections in laboratory animals. When two doses of test compound were administered to mice experimentally infected with S. pyogenes C203, the activity observed was measured as an ED50 value [effective dose in mg/kg to protect 50% of the test animals: see Warren Wick, et al., J. Bacteriol. 81, 233-235 (1961)].
smiles,measurement,setting,value
"CCC1OC(=O)CC(O)C(C)C(OC2OC(C)C(O)C(N(C)C)C2O)C(CCOc2ccccc2)CC(C)C(=O)C=CC(C)=CC1COC(=O)CCc1ccccc1 (stereo not shown) [Compound 33, 20-O-Phenyl-20-dihydro-23-O-phenylpropionyl-OMT]",MIC,[1],1 µg/mL
same,MIC,[2],1 µg/mL
same,MIC,"[3]; Streptococcus pyogenes, C203",2 µg/mL
same,MIC,[4]; Streptococcus pneumoniae,0.5 µg/mL
same,MIC,"[5]; agar-dilution, Klebsiella pneumoniae KAE, read-out: MIC",> 128 µg/mL
same,MIC,"[6]; Klebsiella pneumoniae, X26",32 µg/mL
same,MIC,"Escherichia coli EC14; agar-dilution, Escherichia coli EC14, read-out: MIC",> 128 µg/mL
same,MIC,[7],1 µg/mL
same,MIC,[8]; 9960,2 µg/mL
same,MIC,[9],1 µg/mL
same,MIC,Escherichia coli TEM,> 128 µg/mL
same,MIC,[10],1 µg/mL
same,MIC,"[11]; Staphylococcus epidermidis, EPI2",1 µg/mL
same,MIC,[12],2 µg/mL
same,MIC,[13],128 µg/mL
same,MIC,[14],> 128 µg/mL
same,MIC,Mycoplasma synoviae,6.25 µg/mL
same,MIC,"[15]; Pasteurella multocida, 22A",3.12 µg/mL
same,MIC,"Streptococcus sp. 80; Streptococcus, SP.80",0.097 µg/mL
same,MIC,Mycoplasma hyorhinis; Mycoplasma,50 µg/mL
same,MIC,[16],25 µg/mL
same,MIC,[17],25 µg/mL
same,MIC,[18],12.5 µg/mL
same,MIC,[19],3.12 µg/mL
same,MIC,Mycoplasma gallisepticum,0.78 µg/mL
same,MIC,[20],25 µg/mL
same,MIC,"[21]; Pasteurella multocida, 60A",3.12 µg/mL
same,MIC,[22],25 µg/mL
same,MIC,"[23]; Pasteurella multocida, 68C",3.12 µg/mL
same,MIC,"[24]; Pasteurella multocida, 40G",3.12 µg/mL
same,MIC,Staphylococcus aureus,0.78 µg/mL
same,ED50,"[25]; C203, mice, oral, read-out: ED50 Oral",> 50 mg/kg
same,ED50,"[25]; C203, sc, mice, subcutaneous, read-out: ED50 Subcutaneous",> 10 mg/kg
"CCC1OC(=O)CC(O)C(C)C(OC2OC(C)C(O)C(N(C)C)C2O)C(CCO)CC(C)C(=O)C=CC(C)=CC1CN1CCCCCCC1 (stereo not shown) [Compound 58, 20-Dihydro-23-Octahydroazocin-1-yl-23-deoxy-OMT]",MIC,[1],0.5 µg/mL
same,MIC,[2],0.5 µg/mL
same,MIC,"[3]; agar-dilution, Streptococcus pyogenes C203, read-out: MIC",0.25 µg/mL
same,MIC,"[4]; agar-dilution, Streptococcus pneumoniae Park I, read-out: MIC",0.25 µg/mL
same,MIC,[5]; Klebsiella pneumoniae,64 µg/mL
same,MIC,"[6]; agar-dilution, Klebsiella pneumoniae X26, read-out: MIC",2 µg/mL
same,MIC,"Escherichia coli EC14; Escherichia coli, EC14",64 µg/mL
same,MIC,[7],0.5 µg/mL
same,MIC,"[8]; agar-dilution, Streptococcus 9960, read-out: MIC",4 µg/mL
same,MIC,[9],0.5 µg/mL
same,MIC,Escherichia coli TEM,8 µg/mL
same,MIC,[10],2 µg/mL
same,MIC,"[11]; agar-dilution, Staphylococcus epidermidis EPI2, read-out: MIC",0.25 µg/mL
same,MIC,[12],1 µg/mL
same,MIC,[13],2 µg/mL
same,MIC,[14],4 µg/mL
same,MIC,"Mycoplasma synoviae; broth-dilution microtiter, Mycoplasma synoviae, read-out: MIC",6.25 µg/mL
same,MIC,"[15]; broth-dilution microtiter, Pasteurella multocida 22A, read-out: MIC",1.56 µg/mL
same,MIC,"Streptococcus sp. 80; broth-dilution microtiter, Streptococcus sp. 80, read-out: MIC",1.56 µg/mL
same,MIC,"Mycoplasma hyorhinis; broth-dilution microtiter, Mycoplasma hyorhinis, read-out: MIC",25 µg/mL
same,MIC,[16],0.39 µg/mL
same,MIC,[17],0.78 µg/mL
same,MIC,[18],> 50 µg/mL
same,MIC,[19],3.12 µg/mL
same,MIC,"Mycoplasma gallisepticum; broth-dilution microtiter, Mycoplasma gallisepticum, read-out: MIC",0.39 µg/mL
same,MIC,[20],50 µg/mL
same,MIC,"[21]; broth-dilution microtiter, Pasteurella multocida 60A, Avian isolate, read-out: MIC",0.78 µg/mL
same,MIC,[22],0.78 µg/mL
same,MIC,"[23]; broth-dilution microtiter, Pasteurella multocida 68C, read-out: MIC",1.56 µg/mL
same,MIC,"[24]; broth-dilution microtiter, Pasteurella multocida 40G, read-out: MIC",0.39 µg/mL
same,MIC,"Staphylococcus aureus; broth-dilution microtiter, read-out: MIC",0.78 µg/mL
